Values quoted from earlier work in patent US20240226016A1, “STARCH BASED PRINTABLE MATERIALS” (ROQUETTE FRERES, priority 2021, published 2024).

SMILES: Cn1c(=O)c2c(ncn2CC(O)CO)n(C)c1=O (stereo not shown) [diprophylline]
- solubility in water (class): freely soluble in water
